Measured values: patent US11352370B2, “Mutant KRAS inhibitors” (H. LEE MOFFITT CANCER CENTER AND RESEARCH INSTITUTE, INC., priority 2015, dated 2022)

Target: mt G12D KRas (Homo sapiens, UniProt P01116, G12D)
Experiment: Mant-GDP assay (inhibition of GTP displacing mant-GDP)
Assay type: binding
Conditions: for displacing mant-GDP from mt G12D KRas (in words): assay optimization, FIG. 1A

Sequence of mt G12D KRas (P01116 1-188 isoform P01116-2 G12D): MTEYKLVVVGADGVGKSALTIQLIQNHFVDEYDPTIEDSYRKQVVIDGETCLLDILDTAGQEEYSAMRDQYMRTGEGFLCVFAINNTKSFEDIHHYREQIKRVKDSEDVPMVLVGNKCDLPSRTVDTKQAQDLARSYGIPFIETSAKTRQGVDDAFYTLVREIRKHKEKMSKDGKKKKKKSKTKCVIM

SMILES	displacing mant-GDP from mt G12D KRas (in words)	IC50 (GTP titration in the absence of compounds, FIG. 3C, read-out: IC50 of GTP to displace mant-GDP)
Nc1nc2c(ncn2[C@@H]2O[C@H](COP(=O)(O)OP(=O)(O)O)[C@@H](O)[C@H]2O)c(=O)[nH]1 [GDP]	very effective	–
Nc1nc2c(ncn2[C@@H]2O[C@H](COP(=O)(O)OP(=O)(O)OP(=O)(O)O)[C@@H](O)[C@H]2O)c(=O)[nH]1 [GTP]	very effective	620 nM
